Legend:
[1] = test system: S. uberis; experiment: Experimental S. uberis intramammary infection (mastitis) treated by intramammary infusion after each milking; type: in vivo, cows; settings: for reduction in bacterial load: 100 μg in 10-ml FBS after each milking, vs FBS sham control
Experimental: Seven of the animals were treated after each milking with 100 μg of 25(OH)D3 in 10-ml fetal bovine serum (FBS), the other seven were sham treated with 10-ml FBS only. […] The lower bacterial load in the 25(OH)D3 treated animals and therefore a likely reduction of pyrogens explains the reduction in fever seen in the treated group. The level of bovine serum albumin (BSA) in the milk is used as an indicator of changes in the mammary vascular permeability in the gland and typically increases with an acute infection. […] Fewer bacteria in the treated group (FIG. 1) leads to less tissue damage (FIG. 3) and leads to less pyrogens going systemic (FIG. 2). Also, after the fourth day of the infection two cows (out of 6) in the 25D3 had no infection, whereas, all six were infected at this time point in the control treated group.

[2] = test system: Pseudomonas; experiment: Mastitis-infected cow with chronic Pseudomonas infection treated by intramammary infusion; type: in vivo; settings: 100 ug infusions twice a day in the infected gland; after 2 treatments; from thousands of bacteria per ml; detection limit 100 cfu/ml; FIG. 4
Experimental: After weeks of various conventional treatment the cow was treated with 25(OH)D3 as described in Example 1, with 100 ug infusions twice a day in the infected gland. The treatment of this animal with 25(OH)D3 caused the bacterial load to go from thousands of bacteria per ml to at or below our detection limit of 100 cfu/ml after 2 treatments (FIG. 4).

[3] = test system: Cyp24A1; experiment: Cyp24A1 gene expression in milk cells after intramammary infusion into an infected mammary quarter; type: in vivo; settings: single 100 μg infusion into infected mammary quarter of two cows; compared to cells obtained prior to infusion

SMILES: C=C1CC[C@H](O)C/C1=C/C=C1\CCC[C@]2(C)[C@@H]([C@H](C)CCCC(C)(C)O)CC[C@@H]12 [25(OH)D3, 25-hydroxy vitamin D3]
- reduction in bacterial load ([1]; day 2 of the experiment): 2-4 log
- reduction in bacterial load ([1]; days 4 and 5 post infection): 1.5-2 log
- cows with no infection ([1]; after the fourth day of the infection, all six control cows were infected): two
- level of bovine serum albumin (BSA) in the milk ([1]; indicator of mammary vascular permeability, treated vs control, FIG. 3): not statistically significant
- bacterial counts in infected glands ([1]; repeated measures analysis, significant difference (p<0.05) at day 2 AM and day 2 PM, FIG. 1): significantly (p<0.05) reduced
- rectal temperatures ([1]; treated vs control cows at two time points (p<0.05), FIG. 2): significantly lower
- bacterial load [2]: ≤ 100 cfu/ml
- gene expression of Cyp24A1 [3]: increased

Reference: US8785421B1, “Use of vitamin D in dairy mastitis treatment” (The United States of America as represented by the …, priority 2011, dated 2014)
